Experimental data: US11331333B2, “Treatment of aberrant fibroblast proliferation” (Georg August Universitaet Goettingen Stiftung Oeffentlichen …, priority 2019, dated 2022)

Tests used:
[1] = system: EYA1A^tg mice challenged with UUO; assay: Unilateral ureteral obstruction (UUO) kidney fibrosis in EYA1A^tg mice; assay type: in vivo, mouse; details: Na3VO4 8 mg/kg or caffeine 12.5 mg/kg i.p. once per day; EYA1Atg mice, UUO
Protocol: From 3 days before surgery, C57BL/6 (referred as wildtype) or transgenic mice overexpressing human splice variants EYA1A (rtTACMV;hEYA1A-pTreTight, referred to as EYA1A^tg) and EYA1C (rtTACMV;hEYA1C-pTreTight, referred to as EYA1C^tg) were treated with either vehicle buffer (glucose 5%) or DOX (2 mg/ml, Sigma, St. Louis, USA) within drinking water ad libidum and renewal every 2 days.
Mice were anesthetized with isoflurane inhalation (2-3%), analgesia was performed by subcutaneous injection of 0.1 mg/kg body weight per day Buprenorphine. The ureter was separated from the surrounding tissues and two ligatures were placed about 5 mm apart in upper two-thirds of the left ureter to obtain reliable obstruction. Mice were sacrificed 3, 7 or 10 days after ureteral obstruction for further analyses.
Mice were injected intraperitoneally with Na3VO4 (8 mg/kg i.p. once per day, Sigma, St. Louis, USA) or caffeine (12.5 mg/kg i.p. once per day, Sigma, St. Louis, USA) starting one day prior of surgery, control mice received equivalent volume of PBS or DMSO.
Mice were injected intraperitoneally with SCR7 (20 mg/kg i.p. every alternate day, Sigma, St. Louis, USA) starting one day prior of surgery, control mice received equivalent volume of DMSO.
The inventors obtained 25 nucleotide antisense morpholino sequences (Gene Tools, Philomath, USA). The in vivo morpholinos contain a covalently linked octaguanidine dendrimer as a delivery moiety to facilitate entry into cells in vivo. Mice were injected intraperitoneally with 12.5 mg/kg body weight in vivo morpholinos in saline at a final volume of 100 μL every other day starting two days prior of surgery. A control in vivo
Lentiviral pLenti-Sce1 was produced in 293T virus packaging cells after transfection using morpholino that targets a human β-globin intron mutation was used as standard control. In vivo morpholino sequences are those of SEQ ID NOs: 9 (EYA1A-VMO), 10 (53Bp1-VMO) and 16 (control).
Formalin-fixed, paraffin-embedded kidneys and hearts from mice, and HOPE-fixed, paraffin-embedded human specimens were sectioned at 3 μm, Masson's Trichrome Stain (MTS) was performed at the University Medicine Göttingen. For morphometric analysis of interstitial fibrosis in mice and human biopsies, we assessed the fibrotic area using cellSens (Olympus, Tokyo, Japan) software. Ten visual fields were selected randomly for each MTS stained section at 200× magnification and the relative interstitial fibrotic area was evaluated by using a 10 mm^2 graticule.
Formalin-fixed, paraffin-embedded kidney sections from mice as well as from HOPE-fixed, paraffin-embedded human specimens were deparaffinized in xylene and rehydrated in ethanol containing distilled water. For immunofluorescent staining, EYA1 isoform antisera or primary antibodies against αSMA (A5228, Sigma, St. Louis, USA), Collagen-1 (ab34710, Abcam Biochemicals, Cambridge, UK), γH2A.X^pS139 (ab2893, Abcam Biochemicals, Cambridge, UK), γH2A.X^pS139 (05-636, Merck Millipore, Billerica, UK), γH2A.X^pY142 (ab94602, Abcam Biochemicals, Cambridge, UK), p-Chk1^pS317 (12302P, Cell Signaling, Danvers, USA), p-Chk2^pT68 (2197S, Cell Signaling, Danvers, USA), Rpa1 (2267S, Cell Signaling, Danvers, USA), Rad51 (sc-8349, Santa Cruz Biotechnology, Dallas, USA), 53Bp1 (sc-22760, Santa Cruz Biotechnology, Dallas, USA), Xrcc4 (sc-8285, Santa Cruz Biotechnology, Dallas, USA) and GFP (MA5-15256, Thermo Fisher Scientific, Waltham, USA) were used, secondary antibodies were labeled with Alexa Fluor 488, 594 or 647 (Life Technologies, Carlsbad, USA). Renal basement membranes were stained with antibodies against Collagen-4 (1340-30, SouthernBiotech, Birmingham, USA). Nuclear staining was performed using 4′,6-diamidino-2-phenylindole (DAPI, Vector Laboratories, Burlingame, USA). Quantifications were performed per high power field at 400× magnification, representative confocal pictures using an LSM 780 confocal laser scanning microscope (Zeiss, Oberkochen, Germany) are shown.

[2] = system: primary murine fibroblasts overexpressing EYA1A; assay: Proliferative activity of primary murine fibroblasts overexpressing EYA1A; assay type: cell-based, mouse; details: seeded at 60,000 per well
Excerpt: FIGS. 12A-12B show the effect of the established EYA1 γH2A.X^[…] tyrosine phosphatase inhibitors Na3VO4 (blocking tyrosine phosphatase activity) and caffeine (blocking ATM-dependent recruitment of EYA1 towards γH2A.X) on γH2A.X^[…] dephosphorylation and fibroblast accumulation. FIG. 12A depicts results of an analysis of photomicrographs of primary murine fibroblast cultures transfected with control plasmids (vector) and plasmids overexpressing […]) or EYA1C (EYA1C^oe). […] FIG. 12B depicts results of an analysis of proliferative activity of primary murine fibroblasts transfected with indicated constructs, seeded at a density of 60,000 per well.

| SMILES | impact of EYA1A overexpression on renal fibrogenesis [1] | γH2A.X^pY142 dephosphorylation [1] | EYA1A-induced fibroblast accumulation [2] |
| --- | --- | --- | --- |
| [Na+].[Na+].[Na+].[O]=[V]([O-])([O-])[O-] [Na3VO4, sodium orthovanadate] | reversed the enhancing impact | effectively blocked | reversed |
| Cn1c(=O)c2c(ncn2C)n(C)c1=O [caffeine] | reversed the enhancing impact | effectively blocked | reversed |
